# Reference: US6352988B2, “Indane or dihydroindole derivatives” (H. Lundbeck A/S, priority 1996, dated 2002)
# Target: T1, dopamine D4 receptors in cloned human dopamine receptor subtype 4.2 membranes (Homo sapiens, UniProt P21917, DEL271-302)
# T1 sequence (P21917 with tags, fused parts or gaps DEL271-302): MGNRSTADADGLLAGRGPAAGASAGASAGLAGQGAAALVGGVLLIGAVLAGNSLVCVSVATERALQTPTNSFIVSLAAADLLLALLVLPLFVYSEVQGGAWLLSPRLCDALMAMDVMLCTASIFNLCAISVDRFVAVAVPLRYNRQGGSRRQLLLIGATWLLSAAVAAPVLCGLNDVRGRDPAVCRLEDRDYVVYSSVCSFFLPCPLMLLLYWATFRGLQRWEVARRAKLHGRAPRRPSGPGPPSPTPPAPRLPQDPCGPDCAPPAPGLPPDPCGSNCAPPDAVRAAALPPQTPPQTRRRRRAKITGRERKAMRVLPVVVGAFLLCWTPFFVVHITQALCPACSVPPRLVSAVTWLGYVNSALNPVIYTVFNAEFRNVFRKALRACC
# Test: 3H-YM-09151-2 binding (affinity for dopamine D4 receptors)
# Conditions: 3H-YM-09151-2, cloned human D4.2 membranes; * means that the test result is preliminary; read-out: D4-bind. IC50
# Procedure: By this method the inhibition by drugs of the binding of the dopamine D4 antagonist ^3H-YM-09151-2 to dopamine D4 receptors in cloned human dopamine receptor subtype 4.2 membranes is determined in vitro. Accordingly, this is a test for affinity for dopamine D4 receptors. The test is performed using a preparation of cloned dopamine D4 cell membranes CRM-016®, Dupharma A/S, Denmark, in accordance with the product specifications.
row,SMILES,IC50 [nM]
1,"c1ccc2c(c1)CC(CN1CCN(c3ccc4[nH]ccc4c3)CC1)C2 [Compound 11f, 5-[4-(Indan-2-yl)methylpiperazin-1-yl]-1H-indole]",1.6
2,"Clc1ccc2c(C3=CCN(CCCC4CCc5ccccc54)CC3)c[nH]c2c1 (centres unmarked) [Compound 8g, 6-Chloro-3-[1-[3-(indan-1-yl)propan-1-yl]-1,2,3,6-tetrahydropyridin-4-yl]-1H-indole]",14
3,"Clc1ccc2c(C3=CCN(CCC4CNc5ccccc54)CC3)c[nH]c2c1 (centres unmarked) [Compound 30a, 6-Chloro-3-[1-[2-(2,3-dihydro-1H-indol-3-yl)ethyl]-1,2,3,6-tetrahydropyridin-4-yl]-1H-indole]",9.9
4,"c1ccc2c(c1)CC(CCN1CCN(c3ccc4[nH]ccc4c3)CC1)C2 [Compound 25b, 5-[4-[2-(Indan-2-yl)ethyl]piperazin-1-yl]-1H-indole]",5.3
5,CC(=O)Nc1ccc2c(c1)C(CCN1CC=C(c3c[nH]c4cc(Cl)ccc34)CC1)CC2 (centres unmarked) [Compound 18c],41
6,"Clc1ccc2c(C3=CCN(CC4CCc5ccc6[nH]ccc6c54)CC3)c[nH]c2c1 (centres unmarked) [Compound 16a, 8-[4-(6-Chloro-1H-indol-3-yl)-1,2,3,6-tetrahydropyridin-1-ylmethyl]-3,6,7,8-tetrahydro-cyclopent[e]indole]",6.2
7,"Clc1ccc2c(C3CCN(CCCCC4CCc5ccccc54)CC3)c[nH]c2c1 (centres unmarked) [Compound 8f, 6-Chloro-3-[1-[4-(indan-1-yl)butan-1-yl)-piperidin-4-yl]-1H-indole]",12
8,"Clc1ccc2c(ccn2C2=CCN(CCC3Cc4ccccc4C3)CC2)c1 [Compound 28a, 5-Chloro-1-[1-[2-(indan-2-yl)ethyl]-1,2,3,6-tetrahydropyridin-4-yl]-1H-indole]",160
9,Clc1ccc2c(C3=CCN(CCCCC4CCc5ccccc54)CC3)c[nH]c2c1 (centres unmarked) [Compound 8h],34
10,"CC(=O)N1CC(CCN2CC=C(c3c[nH]c4cc5c(cc34)OCO5)CC2)c2ccccc21 (centres unmarked) [Compound 20h, 3-[1-[2-(1-Acetyl-2,3-dihydro-1H-indol-3-yl)ethyl]-1,2,3,6-tetrahydropyridin-4-yl]-5,6-methylenedioxy-1H-indole]",30
11,"Fc1ccc2[nH]cc(C3CCN(CCC4CCc5ccccc54)CC3)c2c1 (centres unmarked) [Compound 8c, 5-fluoro-3-[1-[2-(indan-1-yl)ethyl]-piperidin-4-yl]-1H-indole]",2.3
12,"c1ccc2c(c1)CC(CCN1CCN(c3cccc4[nH]ccc34)CC1)C2 [Compound 25a, 4-[4-[2-(Indan-2-yl)ethyl]piperazin-1-yl]-1H-indole]",2.7
13,"CC(=O)N1CC(CCN2CC=C(c3c[nH]c4cc(Cl)ccc34)CC2)c2ccccc21 (single isomer, unassigned; (+)) [Compound 34a]",4
14,"CC(=O)N1CC(CCN2CC=C(c3c[nH]c4cc(Cl)ccc34)CC2)c2ccccc21 (centres unmarked) [Compound 20a, 3-[1-[2-(1-Acetyl-2,3-dihydro-1H-indol-3-yl)ethyl]-1,2,3,6-tetrahydropyridin-4-yl]-6-chloro-1H-indole]",3.1
15,"CC(=O)N1CC(CCN2CCN(c3ccc4[nH]ccc4c3)CC2)c2ccccc21 (centres unmarked) [Compound 20j, 5-[4-[2-(1-Acetyl-2,3-dihydro-1H-indol-3-yl)ethyl]piperazin-1-yl]-1H-indole]",6.9
16,"CC(=O)Nc1cccc2c1CC(CN1CC=C(c3c[nH]c4cc(Cl)ccc34)CC1)C2 (centres unmarked) [Compound 18a, 6-Chloro-3-[1-(4-acetylaminoindan-2-yl)methyl-1,2,3,6-tetrahydropyridine-4-yl]-1H-indole]",7.5
17,"CC(=O)Nc1ccc2c(c1)CCC2CN1CC=C(c2c[nH]c3cc(Cl)ccc23)CC1 (centres unmarked) [Compound 6d, 6-Chloro-3-[1-(5-acetylamino-1-indanylmethyl)-1,2,3,6-tetrahydropyridin-4-yl]-1H-indole]",30
18,"CC(=O)Nc1cccc2c1CC(CN1CCC(c3c[nH]c4cc(Cl)ccc34)CC1)C2 (centres unmarked) [Compound 18b, 6-Chloro-3-[1-(4-acetylaminoindan-2-yl)methylpiperidin-4-yl]-1H-indole]",4.3
19,"Clc1ccc2c(C3=CCN(CC4CCc5ccc(Br)cc54)CC3)c[nH]c2c1 (centres unmarked) [Compound 6e, 6-Chloro-3-[1-(6-bromo-1-indanylmethyl)-1,2,3,6-tetrahydropyridin-4-yl]-1H-indole]",84

row,SMILES,IC50 [nM]
1,"CC(=O)Nc1ccc2c(c1)C(CCCN1CC=C(c3c[nH]c4cc(Cl)ccc34)CC1)CC2 (centres unmarked) [Compound 18d, 6-Chloro-3-[1-[3-(6-acetylaminoindan-1-yl)propan-1-yl]-1,2,3,6-tetrahydropyridin-4-yl]-1H-indole]",7.3
2,"O=CN1CC(CCN2CC=C(c3c[nH]c4cc(Cl)ccc34)CC2)c2ccccc21 (centres unmarked) [Compound 20c, 6-Chloro-3-[1-[2-(1-formyl-2,3-dihydro-1H-indol-3-yl)ethyl]-1,2,3,6-tetrahydropyridin-4yl]-1H-indole]",2.4
3,"N#Cc1ccc2c(c1)C(CN1CCC(c3c[nH]c4cc(Cl)ccc34)CC1)CC2 (centres unmarked) [Compound 6b, 6-Chloro-3-[1-(6-cyano-1-indanylmethyl)piperidin-4-yl]-1H-indole]",3.3
4,"c1ccc2c(c1)CCC2CN1CCC(c2c[nH]c3ccccc23)CC1 (centres unmarked) [Compound 5b, 3-[1-(1-Indanylmethyl)piperindin-4-yl]-1H-indole]",5
5,"Clc1ccc2c(ccn2C2CCN(CCC3Cc4ccccc4C3)CC2)c1 [Compound 29a, 5-Chloro-1-[1-[2-(indan-2-yl)ethyl]piperidin-4-yl]-1H-indole]",6.9
6,"N#Cc1ccc2c(c1)C(CN1CC=C(c3c[nH]c4cc(Cl)ccc34)CC1)CC2 (centres unmarked) [Compound 6a, 6-Chloro-3-[1-(6-cyano-1-indanylmethyl)-1,2,3,6-tetrahydropyridin-4-yl]-1H-indole]",6.8
7,"CC(=O)N1CC(CCN2CC=C(c3c[nH]c4c(Cl)c(Cl)ccc34)CC2)c2ccccc21 (centres unmarked) [Compound 20g, 3-[1-[2-(1-Acetyl-2,3-dihydro-1H-indol-3-yl)ethyl]-1,2,3,6-tetrahydropyridin-4-yl]-6,7-dichloro-1H-indole]",16
8,"CC(=O)Nc1ccc2c(c1)C(CCCCN1CC=C(c3c[nH]c4cc(Cl)ccc34)CC1)CC2 (centres unmarked) [Compound 18e, 6-Chloro-3-[1-[4-(6-acetylaminoindan-1-yl)butan-1-yl]-1,2,3,6-tetrahydropyridin-4-yl]-1H-indole]",66
9,"Clc1cccc2c(C3CCN(CC4Cc5ccccc5C4)CC3)c[nH]c12 [Compound 21c, 7-Chloro-3-[1-(indan-2-ylmethyl)piperidin-4-yl]-1H-indole]",1.8
10,"CC(=O)N1CC(CCCN2CC=C(c3c[nH]c4cc(Cl)ccc34)CC2)c2ccccc21 (centres unmarked) [Compound 20k, 3-[1-[3-(1-Acetyl-2,3-dihydro-1H-indol-3-yl)propyl]-1,2,3,6-tetrahydropyridin-4-yl]-6-chloro-1H-indole]",10
11,"C1=C(c2c[nH]c3ccccc23)CCN(CC2CCc3ccccc32)C1 (centres unmarked) [Compound 5a, 3-[1-(1-Indanylmethyl)-1,2,3,6-tetrahydropyridin-4-yl]-1H-indole]",3.5
12,"COc1ccc2c(c1)C(CN1CC=C(c3c[nH]c4ccccc34)CC1)CC2 (centres unmarked) [Compound 5d, 3-[1-(6-methoxyindan-1-yl)methyl-1,2,3,6-tetrahydropyridin-4-yl]-1H-indole]",20
13,"CC(C)(C)OC(=O)N1CC(CCN2CC=C(c3c[nH]c4cc(Cl)ccc34)CC2)c2ccccc21 (centres unmarked) [Compound 20i, 3-[1-[2-(1-tert-Butoxycarbonyl-2,3-dihydro-1H-indol-3-yl)ethyl]-1,2,3,6-tetrahydropyridin-4-yl]-6-chloro-1H-indole]",2.9
14,"O=CN1CC(CCN2CCC(c3c[nH]c4cc(Cl)ccc34)CC2)c2ccccc21 (centres unmarked) [Compound 20d, 6-Chloro-3-[1-[2-(1-formyl-2,3-dihydro-1H-indol-3-yl)ethyl]piperidin-4-yl]-1H-indole]",3
15,"Clc1ccc2c(C3=CCN(CC4Cc5ccccc5C4)CC3)c[nH]c2c1 [Compound 11a, 6-Chloro-3-[1-(indan-2-yl)methyl-1,2,3,6-tetrahydropyridin-4-yl]-1H-indole]",2.8
16,"CC(=O)N1CC(CCN2CC=C(c3c[nH]c4cc(Cl)ccc34)CC2)c2cc(C)ccc21 (centres unmarked) [Compound 20m, 3-[1-[2-(1-Acetyl-5-methyl-2,3-dihydro-1H-indol-3-yl)ethyl]-1,2,3,6-tetrahydropyridin-4-yl]-6-chloro-1H-indole]",8.4
17,"C1=C(n2ccc3ccccc32)CCN(CCC2Cc3ccccc3C2)C1 [Compound 28b, 1-[1-[2-(Indan-2-yl)ethyl]-1,2,3,6-tetrahydropyridin-4-yl]-1H-indole]",14
18,"COc1cccc2c1C(CN1CC=C(c3c[nH]c4cc(Cl)ccc34)CC1)CC2 (centres unmarked) [Compound 5c, 6-Chloro-3-[1-(7-methoxyindan-1-yl)methyl-1,2,3,6-tetrahydropyridin-4-yl]-1H-indole]",32

# Same assay, conditions: at 50 nM; 3H-YM-09151-2, cloned human D4.2 membranes; read-out: D4-bind. % inhibition of binding at 50 nM
row,SMILES,inhibition at 0.05 µM [%]
1,"CC(=O)N1CC(CCN2CC=C(c3c[nH]c4cc(Cl)ccc34)CC2)c2cc(Br)ccc21 (centres unmarked) [Compound 20e, 3-[1-[2-(1-Acetyl-5-bromo-2,3-dihydro-1H-indol-3-yl)ethyl]-1,2,3,6-tetrahydropyridin-4yl]-6-chloro-1H-indole]",21
